{
  "source": "patent US6492395B1",
  "about": "“Topical formulation of alkyl-, phenyl-pyridone” (Mepha AG, priority 2001, dated 2002)",
  "experiment": "Stability test, 6 months storage under standard storage conditions",
  "type": "physicochemical",
  "procedure": "Stability testing was carried out as above.",
  "data": [
    {"smiles": "Cc1ccc(=O)n(-c2ccccc2)c1", "note": "[5-methyl-1-phenyl-2-(1H)-pyridone]", "values": [
      {"measurement": "effect on physical stability of emulsions and other colloidal systems", "result": "emulsion destabiliser"}
    ]}
  ]
}
